# Laboratory results published in US10206388B2, “Formulation component” (SYNGENTA LIMITED, priority 2011, dated 2019).
# Tests used:
# Assay type in all cases: in vivo
# [1] = system: four weed species (ABUTH, CHEAL, DIGSA, SETVI); test: Glasshouse weed test, nicosulfuron with adjuvants, mean across species; details: Table 27, Example 24: nicosulfuron 30 or 60 g/ha; mean over two rates, three replicates, 14 and 21 days
# Method: The aromatic ester Finsolv® TN (C12-C15 alkyl benzoate) was tested in a glasshouse against four weed species using the herbicide nicosulfuron. An agrochemical composition was prepared containing 0.2% v/v of the adjuvant in a track sprayer, and was applied at a volume of 200 liters per hectare. Nicosulfuron was applied at either 30 or 60 grams of pesticide per hectare on each of the weed species. The weed species and their growth stage at spraying were Abutilon theophrasti (ABUTH; growth stage 13), Chenopodium album (CHEAL; growth stage 14), Digitaria sanguinalis (DIGSA; growth stage 13), and Setaria viridis (SETVI; growth stage 13).
# (§1) Each spray test replicated three times. The efficacy of the herbicide was assessed visually and expressed as a percentage of the leaf area killed. Samples were assessed at time periods of 7, 14 and 20 days following application. The results shown in Table 6 below are mean averages over the two rates of nicosulfuron, three replicates and the three assessment timings, and are compared to the efficacy of nicosulfuron in the absence of an adjuvant, and nicosulfuron in the presence of the commercially available tank-mix adjuvant, Atplus411F®.
# A second experiment was conducted to assess the efficacy of Finsolv® TN as an adjuvant in compositions of nicosulfuron. This was carried out as outlined above, with the following change: samples were assessed at 14 and 20 days post application.
# The results shown in Table 7 below are mean averages over the two rates of nicosulfuron, three replicates and the two assessment timings, and are compared to the efficacy of nicosulfuron in the absence of an adjuvant, and nicosulfuron in the presence of the commercially available tank-mix adjuvant, Atplus411F®.
# The aromatic esters Benzoate 1 (see Example 9), Benzoflex 354 (2,2,4-trimethyl-1,3-pentanediol dibenzoate) and Finsolv® SB (stearyl benzoate) were tested in a glasshouse against four weed species using the herbicide nicosulfuron. Nicosulfuron was applied at either 30 or 60 grams of pesticide per hectare on each of the weed species. The weed species and their growth stage at spraying were Abutilon theophrasti (ABUTH; growth stage 13), Chenopodium album (CHEAL; growth stage 14), Digitaria sanguinalis (DIGSA; growth stage 13), and Setaria viridis (SETVI; growth stage 13).
# as §1, with “of” for “of 7,”, “Table 14” for “Table 6”, “the two” for “the three”
# An agrochemical composition was prepared containing 0.2% v/v of the adjuvant in a track sprayer and was applied at a volume of 200 liters per hectare. The adjuvant oils were emulsified using a small amount of the surfactant Pluronic® PE 10500, which was present in the composition at a concentration of 0.02% v/v. Nicosulfuron was applied at either 30 or 60 grams of pesticide per hectare on each of the weed species. The weed species and their growth stage at spraying were Abutilon theophrasti (ABUTH; growth stage 13), Chenopodium album (CHEAL; growth stage 14-15), Digitaria sanguinalis (DIGSA; growth stage 14), and Setaria viridis (SETVI; growth stage 13-14).
# Each spray test replicated three times. The efficacy of the herbicide was assessed visually and expressed as a percentage of the leaf area killed. Samples were assessed at time periods of 14 and 21 days following application. […]
# [2] = system: Setaria viridis (SETVI); test: Glasshouse weed test, pinoxaden with adjuvants; details: Table 12, Example 8: pinoxaden 7.5 or 15 g/ha; adjuvant 0.2% v/v; Atlas G5000 in spray tank; mean over two rates, three replicates, 7, 14 and 20 days
# Method: (§2) The aromatic ester Finsolv® TN (C12-C15 alkyl benzoate) was tested in a glasshouse against four weed species using the herbicide pinoxaden. An agrochemical composition was prepared containing 0.2% v/v of the adjuvant in a track sprayer and was applied at a volume of 200 liters per hectare. Pinoxaden was applied at either 7.5 or 15 grams of pesticide per hectare on each of the weed species. […] The weed species and their growth stage at spraying were Alopecurus myosuroides (ALOMY; growth stage 13), Avena fatua (AVEFA; growth stage 12); Lolium perenne (LOLPE; growth stage 13), Setaria viridis (SETVI; growth stage 14).
# as §1, with “test was” for “test”, “12” for “6”, “pinoxaden,” for “nicosulfuron,”, “pinoxaden” for “nicosulfuron”, “adjuvant” for “adjuvant,”, “triethylhexyl phosphate.” for “the commercially available tank-mix adjuvant, Atplus411F®.”
# [3] = system: Avena fatua (AVEFA); test: Glasshouse weed test, pinoxaden with adjuvants; details: Table 12, Example 8: pinoxaden 7.5 or 15 g/ha; adjuvant 0.2% v/v; Atlas G5000 in spray tank; mean over two rates, three replicates, 7, 14 and 20 days
# Method: as §2
# as §1, with “test was” for “test”, “12” for “6”, “pinoxaden,” for “nicosulfuron,”, “pinoxaden” for “nicosulfuron”, “adjuvant” for “adjuvant,”, “triethylhexyl phosphate.” for “the commercially available tank-mix adjuvant, Atplus411F®.”
# [4] = system: Alopecurus myosuroides (ALOMY); test: Glasshouse weed test, pinoxaden with adjuvants; details: Table 12, Example 8: pinoxaden 7.5 or 15 g/ha; adjuvant 0.2% v/v; Atlas G5000 in spray tank; mean over two rates, three replicates, 7, 14 and 20 days
# Method: as §2
# as §1, with “test was” for “test”, “12” for “6”, “pinoxaden,” for “nicosulfuron,”, “pinoxaden” for “nicosulfuron”, “adjuvant” for “adjuvant,”, “triethylhexyl phosphate.” for “the commercially available tank-mix adjuvant, Atplus411F®.”
# [5] = system: Lolium perenne (LOLPE); test: Glasshouse weed test, pinoxaden with adjuvants; details: Table 12, Example 8: pinoxaden 7.5 or 15 g/ha; adjuvant 0.2% v/v; Atlas G5000 in spray tank; mean over two rates, three replicates, 7, 14 and 20 days
# Method: as §2
# as §1, with “test was” for “test”, “12” for “6”, “pinoxaden,” for “nicosulfuron,”, “pinoxaden” for “nicosulfuron”, “adjuvant” for “adjuvant,”, “triethylhexyl phosphate.” for “the commercially available tank-mix adjuvant, Atplus411F®.”
# [6] = system: four weed species (ALOMY, AVEFA, LOLPE, SETVI); test: Glasshouse weed test, pinoxaden with adjuvants, mean across species; details: mean over two rates
# Method: as §2
# as §1, with “test was” for “test”, “12” for “6”, “pinoxaden,” for “nicosulfuron,”, “pinoxaden” for “nicosulfuron”, “adjuvant” for “adjuvant,”, “triethylhexyl phosphate.” for “the commercially available tank-mix adjuvant, Atplus411F®.”
# A second experiment was conducted to assess the efficacy of Finsolv® TN as an adjuvant for pinoxaden. This was carried out as outlined above, with the following change: samples were assessed at 14 and 20 days post application. The results shown below in Table 13 are mean averages over the two rates of pinoxaden, three replicates, the two assessment timings, and the four weed species, and are compared to the efficacy of pinoxaden in the absence of an adjuvant and pinoxaden in the presence of the common adjuvant methyl oleate.
# as §2, with “An” for “The aromatic ester Finsolv® TN (C12-C15 alkyl benzoate) was tested in a glasshouse against four weed species using the herbicide pinoxaden. An”
# as §1, with “test was” for “test”, “17” for “6”, “pinoxaden,” for “nicosulfuron,”, “pinoxaden” for “nicosulfuron”, “adjuvant” for “adjuvant,”, “Brij®96.” for “the commercially available tank-mix adjuvant, Atplus411F®.”
# An agrochemical composition was prepared containing 0.2% v/v of the adjuvant in a track sprayer and was applied at a volume of 200 liters per hectare. The adjuvant oils were emulsified using a small amount of the surfactant Pluronic® PE 10500, which was present in the composition at a concentration of 0.02% v/v. Pinoxaden was applied at either 7.5 or 15 grams of pesticide per hectare on each of the weed species. […] The weed species and their growth stage at spraying were Alopecurus myosuroides (ALOMY; growth stage 13), Avena fatua (AVEFA; growth stage 12); Lolium perenne (LOLPE; growth stage 13), Setaria viridis (SETVI; growth stage 13-14).
# Each spray test was replicated three times. The efficacy of the herbicide was assessed visually and expressed as a percentage of the leaf area killed. Samples were assessed at time periods of 14 and 21 days following application. The results shown in Table 18 below are mean averages over the two rates of pinoxaden, three replicates and the two assessment timings, and are compared to the efficacy of pinoxaden in the absence of an adjuvant and pinoxaden in the presence of tris 2ethylhexylphosphate (TEHP).
# The aromatic esters Finsolv® TN and the aromatic ester ethoxylate Dermol 25-3B were tested in a glasshouse against four weed species using the herbicide pinoxaden. […]
smiles,measurement,setting,value
"CCc1cc(C)cc(CC)c1-c1c(OC(=O)C(C)(C)C)n2n(c1=O)CCOCC2 [Pinoxaden, pinoxaden]","Mean percentage kill, Mean across species",[1],46.6C %
same,Mean percentage kill SETVI,[2],0.8 B %
same,Mean percentage kill AVEFA,[3],2.8 B %
same,Mean percentage kill ALOMY,[4],1.1 B %
same,Mean percentage kill LOLPE,[5],5.0 B %
same,"Mean percentage kill, Mean across species","[6]; Table 12, Example 8: pinoxaden 7.5 or 15 g/ha, adjuvant 0.2% v/v, Atlas G5000 in spray tank, three replicates, 7, 14 and 20 days",2.43 B %
same,"Mean percentage kill, Mean across species","[6]; Table 13, Example 8 second experiment: pinoxaden 7.5 or 15 g/ha, adjuvant 0.2% v/v, three replicates, 14 and 20 days, four weed species",0.5 B %
same,"Mean percentage kill, Mean across species","[6]; Table 17, Example 13: pinoxaden 7.5 or 15 g/ha, adjuvant 0.2% v/v, Atlas G5000 in spray tank, three replicates, 7, 14 and 20 days",1.8 C %
same,"Mean percentage kill, Mean across species","[6]; Table 18, Example 14: pinoxaden 7.5 or 15 g/ha, adjuvant 0.2% v/v emulsified with Pluronic PE 10500 0.02% v/v, three replicates, 14 and 21 days",2.6B %
same,"Mean percentage kill, Mean across species","[6]; Table 22, Example 18: absence of an adjuvant, pinoxaden 7.5 or 15 g/ha, three replicates, 14 and 21 days",3.6E %
same,"Mean percentage kill, Mean across species","[6]; Table 26, Example 23: pinoxaden 7.5 or 15 g/ha, adjuvant 0.2% v/v, Atlas G5000, three replicates, 14 and 21 days",4.0C %
same,"Mean percentage kill, Mean across species","[6]; Table 32, Example 32: pinoxaden 7.5 or 15 g/ha, adjuvant 0.2% v/v, Atlas G5000, three replicates, 14 and 21 days",3.6B %
